# Measurements as given in publication PMC7465344 (Pharmaceuticals, 2020).
# “And” between values parts separate entries of the source, which are not always exact repeats. Equal entries are not always repeated. Where two headings read alike, the source gives them in different places.
# How the values were obtained:
# [1] = target: T1, hA3 AR (Homo sapiens, UniProt P0DMS8); test: Competition binding of [125I]AB-MECA to hA3 AR in CHO cell membranes; conditions: for inhibition at 10 µM: read-out: hA3AR percentage of inhibition (I%)
# T1 sequence (P0DMS8 1-318): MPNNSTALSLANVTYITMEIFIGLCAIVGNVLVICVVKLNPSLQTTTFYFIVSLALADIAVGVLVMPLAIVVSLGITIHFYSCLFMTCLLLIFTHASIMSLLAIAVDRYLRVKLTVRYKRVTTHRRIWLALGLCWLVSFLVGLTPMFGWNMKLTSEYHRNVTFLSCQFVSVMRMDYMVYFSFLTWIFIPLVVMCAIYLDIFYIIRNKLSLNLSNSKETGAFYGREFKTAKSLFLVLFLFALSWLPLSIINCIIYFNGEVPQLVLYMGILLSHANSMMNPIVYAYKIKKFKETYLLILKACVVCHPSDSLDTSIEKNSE
# Description: (§1) For membrane preparation, the cells were washed with phosphate-buffered saline and scraped off T75 flasks in an ice-cold hypotonic buffer (5 mMTris-HCl, 1 mM EDTA, pH 7.4). The cell suspensions were homogenized with a Polytron, centrifuged for 30 min at 40,000× g at 4 °C and the resulting membrane pellets were used for competition binding experiments [44].
# (§2) Non-specific binding was defined as binding in the presence of 1 μM DPCPX and was always <10% of the total binding [44]. […] Non-specific binding was defined as binding in the presence of 1 μM ABMECA and was always < 10% of the total binding [46]. Bound and free radioactivity were separated by filtering the assay mixture through Whatman GF/B glass fiber filters using a Brandel cell harvester (Brandel Instruments, Unterföhring, Germany).
# (§3) The protein concentration was determined according to a Bio-Rad method with bovine albumin as a standard reference. […] Ki and IC50 values were calculated by the non-linear regression analysis using the equation for a sigmoid concentration-response curve (Graph-PAD Prism, San Diego, CA, USA).
# [2] = target: T2, hA1 AR (Homo sapiens, UniProt P30542); test: Competition binding of [3H]DPCPX to hA1 AR in CHO cell membranes; conditions: for inhibition at 10 µM: read-out: hA1AR percentage of inhibition (I%); for hA1AR Ki: displacement of [3H]DPCPX, CHO cells, mean ± SEM, n = 3–6
# T2 sequence (P30542 1-326): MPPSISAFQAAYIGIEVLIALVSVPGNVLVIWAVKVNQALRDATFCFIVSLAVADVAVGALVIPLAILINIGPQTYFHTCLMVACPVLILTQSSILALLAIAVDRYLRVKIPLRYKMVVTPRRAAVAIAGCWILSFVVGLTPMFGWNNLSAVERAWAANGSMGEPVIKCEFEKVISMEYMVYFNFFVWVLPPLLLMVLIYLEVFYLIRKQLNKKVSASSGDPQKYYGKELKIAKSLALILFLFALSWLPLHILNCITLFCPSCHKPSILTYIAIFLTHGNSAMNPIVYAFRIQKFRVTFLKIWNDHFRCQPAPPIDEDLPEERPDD
# Description: as §1, §2, §3
# [3] = target: T3, hA2A AR (Homo sapiens, UniProt P29274); test: Competition binding of [3H]ZM241385 to hA2A AR in CHO cell membranes
# T3 sequence (P29274 whole entry): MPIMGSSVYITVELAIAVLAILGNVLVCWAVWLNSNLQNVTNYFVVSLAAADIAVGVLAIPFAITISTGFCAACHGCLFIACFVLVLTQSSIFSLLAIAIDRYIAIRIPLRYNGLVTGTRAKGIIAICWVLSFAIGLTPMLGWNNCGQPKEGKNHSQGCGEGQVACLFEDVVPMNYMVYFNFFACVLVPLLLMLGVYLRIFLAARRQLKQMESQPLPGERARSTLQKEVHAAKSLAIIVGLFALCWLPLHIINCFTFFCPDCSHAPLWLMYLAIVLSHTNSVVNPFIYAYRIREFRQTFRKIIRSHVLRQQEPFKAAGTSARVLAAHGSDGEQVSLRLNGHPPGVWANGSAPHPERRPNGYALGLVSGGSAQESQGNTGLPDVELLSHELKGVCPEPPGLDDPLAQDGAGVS
# Description: as §1, §2, §3
# [4] = target: T4, hA2B AR (Homo sapiens, UniProt P29275); test: Inhibition of NECA stimulated adenylyl cyclase activity (cAMP assay) in CHO cells expressing hA2B receptor; type: cell-based; conditions: for inhibition at 10 µM: CHO, at 10 μM of tested compound, cAMP assay, read-out: hA2BAR percentage of inhibition (I%); for IC50: NECA stimulated cAMP, hA2B CHO cells, read-out: hA2BAR IC50 (potency in cAMP assay)
# T4 construct: expressed in transfected cells; host or cells: CHO cells
# T4 sequence (P29275 1-332): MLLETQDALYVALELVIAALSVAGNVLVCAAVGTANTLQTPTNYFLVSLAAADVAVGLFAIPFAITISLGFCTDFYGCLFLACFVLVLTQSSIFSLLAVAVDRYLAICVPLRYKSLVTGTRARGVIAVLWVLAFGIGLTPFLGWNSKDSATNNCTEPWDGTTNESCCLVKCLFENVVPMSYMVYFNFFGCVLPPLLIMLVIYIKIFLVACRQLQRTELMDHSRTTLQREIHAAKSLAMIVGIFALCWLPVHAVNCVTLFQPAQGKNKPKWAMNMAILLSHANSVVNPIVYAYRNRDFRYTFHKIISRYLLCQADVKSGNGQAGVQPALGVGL
# Text: At the end of the experiments, plates were read with the Perkin Elmer EnSight Multimode Plate Reader.
# [5] = target: T3, hA2A AR; test: Cyclic AMP assay in CHO cells expressing hA2A AR (modulation of basal cAMP); conditions: for Pharmacological Behavior / Intrinsic Activity: cyclic AMP assay, hA2A CHO cells; for Intrinsic Activity: mean ± SEM
# Description: CHO cells transfected with hAR subtypes were washed with phosphate-buffered saline, detached with trypsin, and centrifuged for 10 min at 200× g. […] At the end of the experiments, plates were read with the Perkin Elmer EnSight Multimode Plate Reader.
# Ki and IC50 values were calculated by the non-linear regression analysis using the equation for a sigmoid concentration-response curve (Graph-PAD Prism, San Diego, CA, USA).
Ki [1],Ki [2],Ki [3],inhibition at 10 µM [4],IC50 [4],inhibition at 10 µM [1],melting point,IC50 [5],Pharmacological Behavior [5],Intrinsic Activity [5],"Ki ([1]; read-out: hA3AR Ki, displacement of [125I]AB-MECA, CHO cells, mean ± SEM, n = 3–6)",inhibition at 10 µM [2],inhibition at 10 µM ([3]; read-out: hA2AAR percentage of inhibition (I%)),hA1AR Ki [2],"Ki ([3]; read-out: hA2AAR Ki, displacement of [3H]ZM241385, CHO cells, mean ± SEM, n = 3–6)",SMILES
0.127 ± 0.015 µM,2.35 ± 0.213 µM,0.326 ± 0.027 µM,7%,> 10 µM,–,–,–,–,–,–,–,–,–,–,"COCCOc1ccc(N2CCN(c3nc(N)c4nc(-c5ccco5)sc4n3)CC2)cc1 [compound 5, 2-(Furan-2-yl)-5-(4-(4-(2-methoxyethoxy)phenyl)piperazin-1-yl)thiazolo[5,4-d]pyrimidin-7-amine]"
> 10 µM,0.522 ± 0.047 µM,0.037 ± 0.003 µM,29%,> 10 µM,33%,–,–,–,–,–,–,–,–,–,"Nc1nc(NCCN2CCN(CCc3ccccc3)CC2)nc2sc(-c3ccco3)nc12 [compound 13, 2-(Furan-2-yl)-N^5-(2-(4-phenethylpiperazin-1-yl)ethyl)thiazolo[5,4-d]pyrimidine-5,7-diamine]"
> 10 µM,0.798 ± 0.072 µM,0.092 ± 0.008 µM,26%,> 10 µM,17%,133 to 135 °C,–,–,–,–,–,–,–,–,"Nc1nc(NCCN2CCN(Cc3ccccc3)CC2)nc2sc(-c3ccco3)nc12 [compound 12, N^5-(2-(4-Benzylpiperazin-1-yl)ethyl)-2-(furan-2-yl)thiazolo[5,4-d]pyrimidine-5,7-diamine]"
> 10 µM,0.436 ± 0.036 µM,0.0108 ± 0.001 µM,16%,> 10 µM,23%,–,0.00942 ± 0.00087 µM,Inverse agonist,−67 ± 5,–,–,–,–,–,"Nc1nc(NCCN2CCN(C(=O)c3ccco3)CC2)nc2sc(-c3ccco3)nc12 [compound 15, (4-(2-((7-Amino-2-(furan-2-yl)thiazolo[5,4-d]pyrimidin-5-yl)amino)ethyl)piperazin-1-yl)(furan-2-yl)methanone]"
> 10 µM,0.725 ± 0.067 µM,0.187 ± 0.016 µM,22%,> 10 µM,22%,155 to 157 °C,–,–,–,–,–,–,–,–,"Nc1nc(NCCN2CCC(Cc3ccccc3)CC2)nc2sc(-c3ccco3)nc12 [compound 10, N^5-(2-(4-Benzylpiperidin-1-yl)ethyl)-2-(furan-2-yl)thiazolo[5,4-d]pyrimidine-5,7-diamine]"
> 10 µM,0.296 ± 0.022 µM,–,15%,> 10 µM,18%,–,–,–,–,–,–,–,–,–,"Nc1nc(N2CCN(c3ccccc3)CC2)nc2sc(-c3ccco3)nc12 [compound 2, 2-(Furan-2-yl)-5-(4-phenylpiperazin-1-yl)thiazolo[5,4-d]pyrimidin-7-amine]"
–,–,–,–,–,–,–,–,–,–,0.672 ± 0.051 µM,–,–,–,–,"Nc1nc(NCCc2ccc(O)cc2)nc2nc(-c3ccco3)nn12 [ZM 241385, reference compound]"
> 10 µM,0.586 ± 0.037 µM,0.594 ± 0.048 µM,21%,> 10 µM,8%,197 to 199 °C,–,–,–,–,–,–,–,–,"Nc1nc(N2CCC(Cc3ccccc3)CC2)nc2sc(-c3ccco3)nc12 [compound 1, 5-(4-Benzylpiperidin-1-yl)-2-(furan-2yl)thiazolo[5,4-d]pyrimidin-7-amine]"
> 10 µM,> 10 µM,> 10 µM,17%,> 10 µM,28%,–,–,–,–,–,29%,33%,–,–,"CCOC(=O)c1ccc(CNc2nc(N)c3nc(-c4ccco4)sc3n2)cc1 [compound 17, Ethyl 4-(((7-amino-2-(furan-2-yl)thiazolo[5,4-d]pyrimidin-5-yl)amino)methyl)benzoate]"
> 10 µM,0.102 ± 0.009 µM,–,13%,> 10 µM,15%,–,0.00742 ± 0.00068 µM,Inverse agonist,−52 ± 4,–,–,–,good affinities,0.0086 µM and 0.00862 µM,"Nc1nc(NCCN2CCN(c3ccccc3)CC2)nc2sc(-c3ccco3)nc12 [compound 11, 2-(Furan-2-yl)-N^5-(2-(4-phenylpiperazin-1-yl)ethyl)thiazolo[5,4-d]pyrimidine-5,7-diamine]"
1.49 ± 0.126 µM,0.452 ± 0.038 µM,0.0183 ± 0.0019 µM,17%,> 10 µM,–,–,0.0152 ± 0.0013 µM,Inverse agonist,−51 ± 5,–,–,–,–,–,"COCCOc1ccc(N2CCN(CCNc3nc(N)c4nc(-c5ccco5)sc4n3)CC2)cc1 [compound 14, 2-(Furan-2-yl)-N^5-(2-(4-(4-(2-methoxyethoxy)phenyl)piperazin-1-yl)ethyl)thiazolo[5,4-d]pyrimidine-5,7-diamine]"
> 10 µM,> 10 µM,0.264 ± 0.024 µM,26%,> 10 µM,34%,–,–,–,–,–,31%,–,–,–,"CCOC(=O)c1ccc(N2CCN(CCNc3nc(N)c4nc(-c5ccco5)sc4n3)CC2)cc1 [compound 16, Ethyl 4-(4-(2-((7-amino-2-(furan-2-yl)thiazolo[5,4-d]pyrimidin-5-yl)amino)ethyl)piperazin-1-yl) benzoate]"
> 10 µM,0.152 ± 0.011 µM,0.088 ± 0.009 µM,24%,> 10 µM,29%,182 to 183 °C,–,–,–,–,–,–,good affinities,–,"COc1ccc(CN2CCC(CNc3nc(N)c4nc(-c5ccco5)sc4n3)CC2)cc1 [compound 20, 2-(Furan-2-yl)-N^5-((1-(4-methoxybenzyl)piperidin-4-yl)methyl)thiazolo[5,4-d]pyrimidine-5,7-diamine]"
> 10 µM,0.524 ± 0.041 µM,0.802 ± 0.073 µM,11%,> 10 µM,28%,–,–,–,–,–,–,–,–,–,"COCCN1CCC(CNc2nc(N)c3nc(-c4ccco4)sc3n2)CC1 [compound 18, 2-(Furan-2-yl)-N^5-((1-(2-methoxyethyl)piperidin-4-yl)methyl)thiazolo[5,4-d]pyrimidine-5,7-diamine]"
> 10 µM,0.247 ± 0.018 µM,0.483 ± 0.034 µM,27%,> 10 µM,21%,–,–,–,–,–,–,–,–,–,"Nc1nc(NCC2CCN(CCc3ccccc3)CC2)nc2sc(-c3ccco3)nc12 [compound 21, 2-(Furan-2-yl)-N^5-((1-phenethylpiperidin-4-yl)methyl)thiazolo[5,4-d]pyrimidine-5,7-diamine]"
> 10 µM,0.365 ± 0.029 µM,0.0152 ± 0.0017 µM,18%,> 10 µM,35%,–,0.0148 ± 0.0014 µM,Inverse agonist,−64 ± 4,–,–,–,–,–,"Nc1nc(NCC2CCN(Cc3ccccc3)CC2)nc2sc(-c3ccco3)nc12 [compound 19, N^5-((1-Benzylpiperidin-4-yl)methyl)-2-(furan-2-yl)thiazolo[5,4-d]pyrimidine-5,7-diamine]"
> 10 µM,0.638 ± 0.056 µM,–,19%,> 10 µM,25%,–,–,–,–,–,–,–,–,–,"Nc1nc(N2CCN(CCN3CCCC3)CC2)nc2sc(-c3ccco3)nc12 [compound 8, 2-(Furan-2-yl)-5-(4-(2-(pyrrolidin-1-yl)ethyl)piperazin-1-yl)thiazolo[5,4-d]pyrimidin-7-amine]"
